Values quoted from earlier work as cited in patent US12290596B2, “Compositions and methods for the treatment of opioid overdose” (priority 2021, dated 2025).

Conditions: intranasal formulation with […] Intravail; cited from earlier work

CNS(=O)(=O)Cc1ccc2[nH]cc(CCN(C)C)c2c1 [sumatriptan]
Increase of maximum plasma concentration in comparison to Imitrex nasal spray: almost four-fold
Increase of total exposure (AUC): 32%
Tmax: 8 to 10 min
